One experiment concerns the target CDK6/cyclin D1 (Homo sapiens, UniProt Q00534). The experiment can be described thus: biochemical. The conditions noted are these: read-out: % enzyme activity, 1 μM; Run 1, Run 2.
Another experiment has as its target T1, GCK/MAP4K2 (Homo sapiens, UniProt Q12851).
T1 sequence (Q12851 1-820): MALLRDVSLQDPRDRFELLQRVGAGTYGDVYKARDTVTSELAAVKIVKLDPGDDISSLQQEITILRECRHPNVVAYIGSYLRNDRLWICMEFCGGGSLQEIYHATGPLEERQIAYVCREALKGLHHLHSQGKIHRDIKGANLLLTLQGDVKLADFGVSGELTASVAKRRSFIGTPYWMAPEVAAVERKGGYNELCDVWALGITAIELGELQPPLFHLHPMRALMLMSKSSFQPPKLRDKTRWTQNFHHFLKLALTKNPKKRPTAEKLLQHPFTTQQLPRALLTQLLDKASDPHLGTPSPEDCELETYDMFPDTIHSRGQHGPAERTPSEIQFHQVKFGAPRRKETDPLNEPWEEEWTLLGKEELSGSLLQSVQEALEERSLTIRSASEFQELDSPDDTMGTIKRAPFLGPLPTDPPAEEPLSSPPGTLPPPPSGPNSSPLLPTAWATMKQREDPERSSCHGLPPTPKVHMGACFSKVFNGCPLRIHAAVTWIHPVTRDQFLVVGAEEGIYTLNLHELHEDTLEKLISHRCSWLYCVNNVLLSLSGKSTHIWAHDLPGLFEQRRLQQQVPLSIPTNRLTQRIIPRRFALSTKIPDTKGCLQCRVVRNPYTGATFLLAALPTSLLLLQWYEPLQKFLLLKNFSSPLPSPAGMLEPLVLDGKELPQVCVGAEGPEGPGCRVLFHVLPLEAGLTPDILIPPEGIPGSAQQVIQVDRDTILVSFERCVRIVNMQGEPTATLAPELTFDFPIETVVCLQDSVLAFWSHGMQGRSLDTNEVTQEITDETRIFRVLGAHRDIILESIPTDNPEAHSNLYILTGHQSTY
Particulars: 1 μM; Run 1, Run 2.

For the next experiment, the target named is CK1G3 (Homo sapiens, UniProt Q9Y6M4). The conditions noted are these: 1 μM; Run 1, Run 2.
The target of another experiment is T2, GLK/MAP4K3 (Homo sapiens, UniProt Q8IVH8).
T2 sequence (Q8IVH8 1-894): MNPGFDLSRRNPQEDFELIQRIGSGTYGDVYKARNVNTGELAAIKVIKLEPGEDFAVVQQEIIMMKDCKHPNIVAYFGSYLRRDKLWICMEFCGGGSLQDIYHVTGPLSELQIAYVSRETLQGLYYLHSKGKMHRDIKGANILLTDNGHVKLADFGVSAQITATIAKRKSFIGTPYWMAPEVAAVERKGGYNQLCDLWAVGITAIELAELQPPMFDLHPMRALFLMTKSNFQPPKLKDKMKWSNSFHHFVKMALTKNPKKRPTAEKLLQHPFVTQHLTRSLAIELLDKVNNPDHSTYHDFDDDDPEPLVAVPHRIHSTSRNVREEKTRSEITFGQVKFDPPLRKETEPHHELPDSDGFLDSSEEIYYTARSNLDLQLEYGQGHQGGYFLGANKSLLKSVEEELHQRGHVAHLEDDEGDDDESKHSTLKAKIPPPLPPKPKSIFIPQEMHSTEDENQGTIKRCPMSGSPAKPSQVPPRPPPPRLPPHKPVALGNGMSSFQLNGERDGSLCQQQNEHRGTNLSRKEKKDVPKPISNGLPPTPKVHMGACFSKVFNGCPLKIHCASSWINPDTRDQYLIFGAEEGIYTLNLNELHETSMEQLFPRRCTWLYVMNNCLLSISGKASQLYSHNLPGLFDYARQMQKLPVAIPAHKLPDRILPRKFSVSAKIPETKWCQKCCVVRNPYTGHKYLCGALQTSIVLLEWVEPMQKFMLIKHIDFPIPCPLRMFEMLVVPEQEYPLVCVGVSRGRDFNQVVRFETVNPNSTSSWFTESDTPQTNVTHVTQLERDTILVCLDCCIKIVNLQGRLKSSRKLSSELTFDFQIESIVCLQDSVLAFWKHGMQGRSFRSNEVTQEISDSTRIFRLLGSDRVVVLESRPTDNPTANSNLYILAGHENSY
The conditions noted are these: 1 μM; Run 1, Run 2.

Another experiment deals with CDK3/cyclin E2 (Homo sapiens, UniProt Q00526). The conditions noted are these: 1 μM; Run 1, Run 2.
For the next experiment, the target named is T3, KSR2 (Homo sapiens, UniProt Q6VAB6).
T3 sequence (Q6VAB6 1-950): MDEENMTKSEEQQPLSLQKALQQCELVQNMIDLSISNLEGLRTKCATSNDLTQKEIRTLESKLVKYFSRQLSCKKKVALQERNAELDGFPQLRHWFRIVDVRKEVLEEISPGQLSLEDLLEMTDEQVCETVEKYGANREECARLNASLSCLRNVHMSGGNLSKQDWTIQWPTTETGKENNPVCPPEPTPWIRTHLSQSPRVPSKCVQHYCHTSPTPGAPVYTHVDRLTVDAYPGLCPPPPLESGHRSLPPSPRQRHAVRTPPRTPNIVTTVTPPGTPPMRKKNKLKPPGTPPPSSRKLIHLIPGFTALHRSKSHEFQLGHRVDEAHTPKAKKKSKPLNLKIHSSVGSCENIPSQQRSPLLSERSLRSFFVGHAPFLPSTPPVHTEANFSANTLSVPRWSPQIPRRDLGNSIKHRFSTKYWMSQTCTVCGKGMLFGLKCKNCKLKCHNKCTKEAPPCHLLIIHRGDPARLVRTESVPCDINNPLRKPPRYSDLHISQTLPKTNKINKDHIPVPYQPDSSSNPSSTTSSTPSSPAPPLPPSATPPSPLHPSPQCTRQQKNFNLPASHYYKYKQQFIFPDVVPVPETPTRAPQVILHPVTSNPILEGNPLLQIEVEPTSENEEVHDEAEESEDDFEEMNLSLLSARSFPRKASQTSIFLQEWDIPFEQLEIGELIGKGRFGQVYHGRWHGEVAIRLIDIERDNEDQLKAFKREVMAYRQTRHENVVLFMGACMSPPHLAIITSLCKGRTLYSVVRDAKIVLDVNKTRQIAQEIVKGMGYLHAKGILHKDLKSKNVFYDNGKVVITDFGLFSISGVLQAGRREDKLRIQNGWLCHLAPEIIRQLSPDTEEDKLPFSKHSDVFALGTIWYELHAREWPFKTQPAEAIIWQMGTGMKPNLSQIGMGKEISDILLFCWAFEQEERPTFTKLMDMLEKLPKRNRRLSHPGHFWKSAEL
Particulars: 1 μM; Run 1, Run 2.

Consider two compounds from PMC8213057, “Targeting ALK2: An Open Science Approach to Developing Therapeutics for the Treatment of Diffuse Intrinsic Pontine Glioma” (Journal of Medicinal Chemistry, 2020).

Molecules are shown by their SMILES.

Chain of CDK3/cyclin E2 (Q00526 whole entry): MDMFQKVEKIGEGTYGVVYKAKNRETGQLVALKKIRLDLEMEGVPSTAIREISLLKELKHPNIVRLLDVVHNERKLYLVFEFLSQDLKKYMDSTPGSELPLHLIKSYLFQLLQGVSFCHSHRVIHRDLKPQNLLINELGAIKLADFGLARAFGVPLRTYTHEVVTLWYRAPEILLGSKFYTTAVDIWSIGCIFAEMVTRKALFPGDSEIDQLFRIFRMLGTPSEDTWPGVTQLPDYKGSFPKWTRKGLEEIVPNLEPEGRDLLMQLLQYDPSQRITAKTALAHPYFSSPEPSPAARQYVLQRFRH
Chain of CDK3/cyclin E2 (O96020 whole entry partner): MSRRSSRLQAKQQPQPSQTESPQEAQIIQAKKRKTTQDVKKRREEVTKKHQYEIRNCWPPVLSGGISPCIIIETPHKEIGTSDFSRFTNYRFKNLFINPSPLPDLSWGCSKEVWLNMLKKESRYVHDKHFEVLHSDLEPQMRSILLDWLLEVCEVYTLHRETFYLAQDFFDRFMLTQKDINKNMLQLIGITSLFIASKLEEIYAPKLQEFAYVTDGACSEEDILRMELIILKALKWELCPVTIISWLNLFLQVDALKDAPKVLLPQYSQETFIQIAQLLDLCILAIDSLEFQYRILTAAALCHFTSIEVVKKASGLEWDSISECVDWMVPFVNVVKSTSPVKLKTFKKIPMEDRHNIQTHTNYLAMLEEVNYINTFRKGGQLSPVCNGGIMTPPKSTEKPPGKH
Chain of CDK6/cyclin D1 (Q00534 whole entry): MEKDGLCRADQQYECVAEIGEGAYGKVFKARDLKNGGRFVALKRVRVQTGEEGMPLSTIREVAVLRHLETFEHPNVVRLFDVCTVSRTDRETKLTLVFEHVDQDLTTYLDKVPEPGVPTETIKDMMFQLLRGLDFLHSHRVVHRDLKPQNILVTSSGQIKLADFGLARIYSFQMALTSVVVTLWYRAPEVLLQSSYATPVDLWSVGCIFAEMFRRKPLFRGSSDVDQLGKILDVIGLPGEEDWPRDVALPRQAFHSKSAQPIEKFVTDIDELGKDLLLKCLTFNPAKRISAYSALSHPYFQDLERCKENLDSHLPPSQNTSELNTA
Chain of CDK6/cyclin D1 (P24385 whole entry partner): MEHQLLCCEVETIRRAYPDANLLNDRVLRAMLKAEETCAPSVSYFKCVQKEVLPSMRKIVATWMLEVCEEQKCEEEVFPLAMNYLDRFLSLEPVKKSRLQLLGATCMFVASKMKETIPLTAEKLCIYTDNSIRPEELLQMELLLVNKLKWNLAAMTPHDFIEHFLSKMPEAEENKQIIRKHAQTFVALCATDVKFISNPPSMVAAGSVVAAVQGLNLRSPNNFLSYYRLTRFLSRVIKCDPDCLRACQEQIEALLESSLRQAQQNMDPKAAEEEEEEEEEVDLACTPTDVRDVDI
Chain of CK1G3 (Q9Y6M4 whole entry): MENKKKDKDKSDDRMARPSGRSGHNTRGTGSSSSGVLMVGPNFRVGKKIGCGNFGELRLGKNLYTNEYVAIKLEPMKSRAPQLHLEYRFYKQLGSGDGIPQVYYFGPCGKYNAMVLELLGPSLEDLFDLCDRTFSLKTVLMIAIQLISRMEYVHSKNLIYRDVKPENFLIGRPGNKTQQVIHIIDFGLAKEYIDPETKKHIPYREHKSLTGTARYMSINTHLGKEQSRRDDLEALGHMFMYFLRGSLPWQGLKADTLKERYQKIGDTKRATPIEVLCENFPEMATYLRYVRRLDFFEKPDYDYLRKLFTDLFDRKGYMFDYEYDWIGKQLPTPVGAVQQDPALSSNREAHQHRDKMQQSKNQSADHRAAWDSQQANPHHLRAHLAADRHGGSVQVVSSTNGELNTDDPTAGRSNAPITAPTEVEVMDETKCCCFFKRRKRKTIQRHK

Take `COc1cc(-c2cncc(-c3ccc(N4C[C@@H](C)N(C)[C@@H](C)C4)cc3)c2C)cc(F)c1C(N)=O` [Compound 26c, 2-Fluoro-6-methoxy-4-(4-methyl-5-(4-((3R,5S)-3,4,5-trimethylpiperazin-1-yl)phenyl)pyridin-3-yl)benzamide]: on CDK6/cyclin D1, the remaining activity at 1 µM was 95.9%. Also, the “% enzyme activity” value on GCK/MAP4K2 amounted to 74.91%; on CK1G3, 77.64%; at GLK/MAP4K3, 88.71%; on CDK3/cyclin E2, 83.94%; at KSR2, 97.71%.

Consider `COc1cc(-c2cncc(-c3ccc(N4CCN(C)CC4)cc3)c2C)cc(F)c1C(N)=O` [Compound 26a, 2-Fluoro-6-methoxy-4-(4-methyl-5-(4-(4-methylpiperazin-1-yl)phenyl)pyridin-3-yl)benzamide], for which, at CDK6/cyclin D1, the remaining activity at 1 µM is 100%. In addition, the “% enzyme activity” value on GCK/MAP4K2 came to 59.95%; on CK1G3, 64.87%; on GLK/MAP4K3 it was 88.16%; at CDK3/cyclin E2, 88.05%; at KSR2, 93.25%.
